Each block holds one molecule with its values, some of them ahead of it.
Legend:
Cdk2 = details: previous report (Adnane et al. 1998); cited from earlier work
GGTase I = target: T1, GGTase I (Homo sapiens, UniProt P49354+P53609); assay: In vitro GGTase I activity assay ([3H]GGPP transfer to H-Ras-CVLL); assay type: biochemical
T1 construct: GGTase I and FTase activities from 60,000×g supernatants of human Burkitt's lymphoma (Daudi) cells; host or cells: Daudi (human Burkitt's lymphoma) cells, 60,000xg supernatant
Method: (§1) A brief discussion of exemplary materials and methods follows. In vitro FTase and GGTase I activity assays were performed. GGTase I and FTase activities from 60,000×g supernatants of human Burkitt's lymphoma (Daudi) cells (American Type Culture Collection (ATCC), Rockville, Md.) were assayed as described previously.

FTase = target: T2, FTase (Homo sapiens, UniProt P49354+P49356); assay: In vitro FTase activity assay ([3H]FPP transfer to H-Ras-CVLS); assay type: biochemical; details: read-out: IC50, inhibition of FTase activity
T2 construct: GGTase I and FTase activities from 60,000×g supernatants of human Burkitt's lymphoma (Daudi) cells; host or cells: Daudi (human Burkitt's lymphoma) cells, 60,000xg supernatant
Method: as §1

[1] = test system: MDA-MB-231 breast cancer tumors; assay: Anti-tumor activity in the nude mouse tumor xenograft model; assay type: in vivo, nude mice; details: for average tumor size: vehicle 860±87
Method: Nude mice (nu/nu, Charles River, Wilmington, Mass.) were maintained in accordance with the Institutional Animal Care and Use Committee (IACUC) procedures and guidelines. MDA-MB-231 cells were harvested via trypsinization, pelleted at 805×g for 5 min, and re-suspended in a 50:50 mixture of sterile PBS and Matrigel (BD Biosciences) at 10×10^6 cells per 100 μl. A volume of 100 μl (˜10×10^6 cells) was injected orthotopically into the upper mammary fat pads of nude mice. The tumor xenografts were monitored by electronic caliper measurements and tumor volume (V) was calculated using the formula V=W^2L/2, where width (W) is […]. When the tumors reached ˜100 mm^3, the animals were randomized and injected intraperiteoneally daily with vehicle (70% DMSO), or 100 mg/kg GGTI-2417 or GGTI-2418, or every third day with GGTI-2418 (200 mg/kg. Tumors were measured every third day for 12-18 days.

[2] = test system: ErbB2-driven mammary tumors; assay: Anti-tumor activity in the ErbB2 transgenic mouse model; assay type: in vivo
Description: (§2) A breeding pair of homozygous FVB/N-Tg (MMTVneu) 202Mul/J mice (JAX #002376, Bar Harbor, Me.) was used to generate a transgenic colony in accordance to IACUC protocols and procedures. Phenotypically, these mice overexpress the receptor tyrosine kinase ErbB2 driven by the MMTV promoter, which results in tumor formation at ˜200 days of age. Once tumors reached sizes above 800 mm^3, osmotic mini-pumps (Alzet, Cupertino, Calif.) were loaded with either vehicle (80% PEG300; 20% DMSO) or GGTI-2418 (100 mg/kg daily) and implanted subcutaneously under the dorsal surface of the mouse, between the shoulder blades. Vehicle or GGTI-2418 was constantly delivered for 14 days, during which tumor volumes were measured and calculated as described above. Tumor biopsies were snap frozen in liquid N2 and stored at −80° C. until further processed. Weighted tumor samples were mixed with the appropriate amount of T-PER® Tissue Protein Extraction Reagent (Pierce, Rockford, Ill.) containing protease inhibitor cocktail, 2 mM PMSF, 2 mM Na3VO4, and 6.4 mg/ml p-nitrophenylphosphate and homogenized with the PCR Tissue Homogenizing Kit (Fisher Scientific). The homogenate was centrifuged at 13,000×g for 30 min at 4° C. and the supernatant was subjected to Western blotting with the indicated antibodies.

p27, Rap1, phospho-Akt = assay: Western blot of tumor biopsies from ErbB2 transgenic mice; assay type: in vivo, mouse
Description: as §2

[3] = test system: MDA-MB-468 breast cancer cells; assay: Trypan Blue exclusion assay (proliferation, cell death) in MDA-MB-468 cells; assay type: cell-based, human; details: 5 nM p27 siRNA; 50 μM GGTI-2417 or 1 μM taxol
Method: Human MDA-MB-468 and MDA-MB-231 breast cancer cells and murine NIH 3T3 cells were obtained from the ATCC and cultured in DMEM medium. Human SK-Br3 and BT-474 breast cancer cells (ATCC) were cultured in McCoy's 5a medium and Hybri-Care medium, respectively. Mouse embryonic fibroblast (MEF) cells from p27 wild-type and p27 null mice were grown in DMEM. All media were supplemented with 10% fetal calf serum, 10 units/ml penicillin, and 10 μg/ml streptomycin. Subconfluent cells were treated with different concentrations of GGTI, FTI or DMSO vehicle for specific time periods. After treatment, cells were harvested by trypsinization.
Pre-designed siRNA to p27 (Cat #118714) and the negative control (Cat #4611) were purchased from Ambion (Austin, Tex.). Twenty-four hours before transfection, MDA-MB-468 cells were plated onto twelve-well plates in fresh DMEM medium containing 10% FBS and no antibiotics. Transient transfection of siRNA was carried out using Oligofectamine reagent (Invitrogen, Carlsbad, Calif.), following the manufacturer's instructions. In brief, 5 nM of p27 siRNA or control siRNA were mixed with Opti-MEM medium (Invitrogen) in such a way so that the total volume went to 90 μl, and then complexed with a mixture of 2 μl of Oligofectamine and 8 μl Opti-MEM; the total volume of RNA:Oligofectamine complex was 100 μl. The RNA:Oligofectamine complex was then incubated for 20 min at room temperature before adding to the cells. Before transfection, the old medium was discarded, cells were washed once with fresh Opti-MEM and 400 μl of fresh Opti-MEM placed into each well before adding the RNA:Oligofectamine complex to each well. The final diluted volume on each well was 500 μl. After 8 h, 500 μl DMEM containing 30% FBS was added to each well and cells were further incubated for 40 h.
Adherent cells were harvested by trypsinization and diluted with 0.4% Trypan Blue dye and counted on a hemacytometer. Cells excluding the dye were scored as live cells, whereas cells absorbing the dye were scored as dead cells. Cell proliferation was determined by dividing the number of live cells in the treated sample by the number of live cells in the control, and the degree of cell death was expressed as percentage of dead cells of the total cell number.

SMILES: COC(=O)[C@H](CC(C)C)NC(=O)c1ccc(NC[C@@H](N)CS)cc1-c1cccc2ccccc12 [GGTI-298]
Cdk2 activity (Cdk2): inhibits Cdk2 activity

Ki (GGTase I; in vitro competition assay, read-out: Ki, competitive inhibition of GGTase I against H-Ras-CVLL protein): 4.4 ± 1.6 nM
IC50 (GGTase I; in vitro, H-Ras-CVLL, [3H]GGPP, read-out: IC50, inhibition of GGTase I activity): 9.5 ± 2 nM
IC50 (FTase): 53000 ± 11000 nM
SMILES: Cc1nc[nH]c1CN1CCN(C(=O)N[C@@H](CC(C)C)C(=O)O)[C@@H](Cc2ccccc2)C1=O [GGTI-2418]
tumor growth inhibition ([1]; 100 mg/kg daily i.p.): 94%
average tumor size ([1]; 100 mg/kg daily i.p.): 139±17 mm^3
tumor growth inhibition ([1]; 200 mg/kg every 3rd day i.p.): 77%
average tumor size ([1]; 200 mg/kg every 3rd day i.p.): 276±26 mm^3
tumor regression, average (S.E.M.) ([2]; 100 mg/kg, 7 mice, 17 tumors): 60±4%
tumor decrease, representative example ([2]; 100 mg/kg/day, osmotic mini-pump): 76%
S473 phosphorylation of Akt in tumors (p27, Rap1, phospho-Akt; pre vs post treatment biopsies): dramatic decrease
geranylgeranylation of Rap1 in tumors (p27, Rap1, phospho-Akt; pre vs post treatment biopsies): inhibited the geranylgeranylation of Rap1
change of p27 in post-treatment tumor samples (densitometry) (p27, Rap1, phospho-Akt; vehicle 0.63±0.19 fold, p=0.03): 2.68±0.63 fold

SMILES: CC(=O)O[C@H]1C(=O)[C@@]2(C)[C@H]([C@H](OC(=O)c3ccccc3)[C@]3(O)C[C@H](OC(=O)[C@H](O)[C@@H](NC(=O)c4ccccc4)c4ccccc4)C(C)=C1C3(C)C)[C@]1(OC(C)=O)CO[C@@H]1C[C@@H]2O [taxol, reference compound]
tumor cell death in the presence of p27 siRNA [3]: could still die

Reference: patent publication US10946012B2, “Methods for inducing tumor regression, inhibiting tumor growth, and inducing apoptosis in breast tumors with geranylgeranyltransferase I inhibitors” (H. Lee Moffitt Cancer Center and Research Institute, Inc., priority 2009, dated 2021)
